In patent US20240352068A1, “VIMENTIN TARGETED PEPTOIDS FOR EARLY DIAGNOSIS AND TREATMENT OF CANCER” (UNIVERSITY OF HOUSTON SYSTEM, priority 2021, published 2024):
pIC50: −log10 of the molar value. Each block holds one molecule with its values, some of them ahead of it. Numbered stars: 1 amine (or outer) side, 2 acyl side, 3 side chain; on linkers, the order of the positions; unused ones are H or OH. Bridge positions count the residues as written; N and C are the ends. Square brackets hold non-standard residues; d marks the D form. Peptide text beside a SMILES is read from it. I, II: the chains in the order shown. X1 = O=C(c1ccccc1)c1cccc(N(CC(=O)[*:2])[*:1])c1; N(4-BzPh)Gly = O=C(O)CNc1ccc(C(=O)c2ccccc2)cc1; Gly(N-piperonyl) = O=C(O)CNCc1ccc2c(c1)OCO2; Nleu = CC(C)CNCC(=O)O; Nlys = NCCCCNCC(=O)O; Nme = COCCNCC(=O)O; Sar = CNCC(=O)O

Columns and labels:
[1] = system: H1299 cells; test: wound healing (cell migration) assay; assay type: cell-based; set-up: inhibition of cell migration: dose or concentration left out as unconfirmed
Protocol: FIGS. 22A-22B provide data related to the characterization of L2 (D-ala), JM3A-BPD1, and JM3A-BP. […] H1299 cells were cultured to form a monolayer in 24-well plate. A scratch was made and wells were treated with L2 (D-ala), JM3A-BPD1. […]
Since vimentin has been identified as an important biomarker of mesenchymal cells during the epithelial-mesenchymal transition (EMT) process. The EMT process can endow epithelial cells with stemness as well as invasion and migration properties. Therefore, Applicant would like to investigate how L2 (D-ala) targeting vimentin can impact cancer stem cells activity. The wound-healing assay indicates the mobility/motility of cells, which is a hallmark measurement of cancer stem cells. The L2 (D-ala), JM3A-BPD1, JM3A-BP, and control compound were used to study the effects on cell migration via wound healing assay. […] Both JM3A-BP monomer and control compounds had no effect on cell migration.

[2] = system: H460 cells; test: colony formation assay; assay type: cell-based; details: for colony formation: 7 days, at 20 μM
Protocol: FIGS. 23A-23B provide additional data related to the characterization of L2 (D-ala), JM3A-BPD1, and JM3A-BP. […] FIG. 23B provides a quantification of the colonies after a 7-day incubation treatment.
Colony formation is a standard assay to assess the activity of cancer stem cells. When cancer cells are seeded in a low number, normal cancer cells die due to the loss of cell-cell communications while cancer stem cells can survive and form colonies in isolation. Applicant performed colony formation assay on H460 cells to study how L2 (D-ala) can affect cancer stem cells activity. The H460 cells were seeded and treated with L2 (D-ala), JM3A-BPD1, JM3A-BP, and control compounds from day 1. After 7 days of incubation, colonies were carefully counted and plotted.

[3] = target: T1, commercially available vimentin protein (Homo sapiens, UniProt P08670); test: magnetic-bead pulldown and western blot with commercially available vimentin protein; assay type: binding; details: western blot
T1 construct: purchased
Description: To further confirm of JM3A specificity, the western blot assay was repeated using commercially available vimentin protein (FIG. 10B). […] This JM3A bound band disappeared when this binding was competed (blocked) with 10× free JM3A, and 5× free vimentin antibody. […] The results were further confirmed by running pure protein as reference band and JM3A transformed cells pulldown proteins.

[4] = target: Vimentin protein (His-tag) (Homo sapiens, UniProt P08670); test: on bead protein binding assay; details: anti-His Alexa 647 detection
Protocol: To reconfirm the JM3A-vimentin interaction, an on bead protein binding assay was performed. Vimentin protein (His-tag) was screened with compound JM3A (on tentagel beads) and visualized using a secondary antibody (Anti-His Alexa 647) (FIG. 9A).

[5] = target: T2, vimentin (Homo sapiens, UniProt P08670); test: cross-linking, magnetic-bead pulldown and western blot on cells; assay type: binding; set-up: from tissue; host or cells: human early cancer tissue and normal tissue cross-sections; details: western blot
Protocol: For pulldown assay, the JM3A compound was synthesized with Biotin on C-terminal and benzophenone on its N-terminal (FIG. 7A). The compound was first mounted on streptavidin magnetic beads, followed by incubation of the cells HBEC3^p53,KRAS,cMYC and HBEC3-KT for 1 hour. Bound cells were separated using magnetic beads and cross-linked using UV. The cells were then lysed, and the proteins were separated by electrophoresis and visualized by silver staining (FIG. 7B). The unique band at around 60 kDa in the JM3A-bound sample, which was not present in whole cell lysis of HBEC3-KT cells or in the Control-PC462 compound pulldown, was analyzed by standard proteomics technique.
To reconfirm the JM3A-vimentin interaction, western blot analysis of samples from cross-linking and magnetic-bead pulldown assay with normal cells (HBEC3-KT) and transformed cells (HBEC3^p53,KRAS,cMYC) were performed (FIG. 10A). Pulldown assay was performed on normal and transformed cells using JM3A and control PC462. All the pulldown fractions were run on western-blot and compared with whole-cell lysis of HBEC3-KT and HBEC3^p53,KRAS,cMYC cells.

[6] = system: HBEC3-KT cells; test: on-bead cell binding, normal cells; assay type: cell-based, human; details: JM3A on tentagel beads, green stained cells, separately and as mixture
Description: (§1) The compound JM3A was resynthesized on tentagel beads and equilibrated with HBEC3^p53,KRAS,cMYC (red stained) cells and HBEC3-KT (green stained) cells separately and also as a mixture.

[7] = target: T2, vimentin; test: immunohistochemical detection of vimentin in tissues; set-up: from tissue; host or cells: human early cancer tissue and normal tissue cross-sections; details: IHC
Protocol: In a more clinically applicable set up, Applicant detected vimentin expression using JM3A in early cancer tissues from human samples using immunohistochemistry (IHC) experiments. Biotin-JM3A was incubated with those tumor tissue cross-sections compared to normal tissues for 1 hour and visualized by streptavidin Q-dots 655 under fluorescent microscope using Long-pass filter (FIG. 11D).

[8] = system: HBEC3^p53,KRAS,cMYC cells; test: on-bead cell binding, transformed cells; assay type: cell-based, human; details: JM3A on tentagel beads, red stained cells, separately and as mixture
Description: as §1

[9] = system: vimentin expressing cells; test: magnetic bead pulldown of cells with quantification; assay type: cell-based, human; details: HBEC3^p53,KRAS,cMYC vs HBEC3-KT; NAD(P)H, dityrosine, MTS readout
Protocol: JM3A can be utilized as an early cancer biomarker to develop simple diagnostic tools such as reading the cells auto fluorescence markers or quantifying the cells using MTS assay. Applicant performed the pulldown assay using JM3A to HBEC3-KT and HBEC3^p53,KRAS,cMYC cells. The Biotin-JM3A compound was mounted on streptavidin coated magnetic beads and 1 million cells (HBEC3-KT and HBEC3^p53,KRAS,cMYC cells each) were incubated for 1 hour. Next, bound cells were pulled using magnet.
The difference of number of cells pulled down were quantified for NAD (P) H (FIG. 11A) and Dityrosine (FIG. 11B) expression. Also to the pulldown cells MTS reagent was added and number of cells were quantified (FIG. 11C).

[10] = target: T2, vimentin; test: ELISA-like binding assay to vimentin
Protocol: To identify minimum pharmacophore of JM3A (the most important residues directly needed for protein binding), an alanine/sarcosine scan was done.
Next, Applicant compared binding activity between L2 (D-ala) and JM3ABPD1 by employing ELISA-like binding assay in a concentration between 10 nM to 10 μM.

[11] = system: H460; test: MTS assay on H460 cells; assay type: cell-based; details: H460, vimentin high expression
Description: (§2) In order to investigate the broader applicability of vimentin targeting in NSCLC cells, Applicant performed the same MTS studies on different lung cancer models with various vimentin expressions. These cell lines included H460 (Carcinoma, large cell lung cancer), H2009 (Adenocarcinoma, Stage 4), H358 (Bronchioalveolar Carcinoma, NSCLC), H2122 (Adenocarcinoma, NSCLC), and normal bronchial epithelial HBEC3KT cells.

[12] = system: H2122; test: MTS assay on H2122 cells; assay type: cell-based; details: H2122, vimentin low expression
Description: as §2

[13] = system: H358; test: MTS assay on H358 cells; assay type: cell-based; details: H358, vimentin moderate expression
Description: as §2

[14] = system: normal bronchial epithelial HBEC3KT cells; test: MTS assay on normal bronchial epithelial cells; assay type: cell-based, human
Description: as §2

[15] = system: H2009; test: MTS assay on H2009 cells; assay type: cell-based; details: H2009, vimentin moderate expression
Description: as §2

[16] = system: H1299 cells; assay type: cell-based
Protocol: Next, Applicant evaluated the anti-proliferative activity of these peptoid dimers via standard MTS assays on non-small cell lung cancer (NSCLC) H1299 cells, which have high vimentin expression.
After 18 hours, the activity reached the maximum (IC50˜6 μM) (FIG. 21C).

T2 sequence (P08670 whole entry): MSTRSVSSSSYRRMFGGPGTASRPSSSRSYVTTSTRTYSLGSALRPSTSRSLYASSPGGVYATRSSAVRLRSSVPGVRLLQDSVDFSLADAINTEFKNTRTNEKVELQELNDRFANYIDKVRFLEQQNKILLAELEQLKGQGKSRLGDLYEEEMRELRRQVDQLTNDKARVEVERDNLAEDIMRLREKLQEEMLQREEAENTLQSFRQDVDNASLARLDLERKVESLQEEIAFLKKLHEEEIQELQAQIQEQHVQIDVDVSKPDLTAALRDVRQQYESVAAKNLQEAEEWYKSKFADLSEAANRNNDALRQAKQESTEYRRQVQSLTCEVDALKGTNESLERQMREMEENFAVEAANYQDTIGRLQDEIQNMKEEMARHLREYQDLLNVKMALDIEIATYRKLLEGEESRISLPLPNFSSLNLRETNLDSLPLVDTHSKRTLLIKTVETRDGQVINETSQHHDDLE
T1 sequence (P08670 whole entry): as above
Vimentin protein (His-tag), sequence (P08670 whole entry): as above

Compound: COCCN(CC(=O)NC(CCCCN)C(=O)NC(CCSC)C(=O)NCCCCC(NC(=O)C(CCSC)NC(=O)C(CCCCN)NC(=O)CN(CCOC)C(=O)CN(Cc1ccc2c(c1)OCO2)C(=O)CN(CC(C)C)C(=O)CN(CCCCN)C(=O)CN(CCCCN)C(=O)CN(CC(C)C)C(=O)CNc1ccc(C(=O)c2ccccc2)cc1)C(N)=O)C(=O)CN(Cc1ccc2c(c1)OCO2)C(=O)CN(CC(C)C)C(=O)CN(CCCCN)C(=O)CN(CCCCN)C(=O)CN(CC(C)C)C(=O)CNc1ccc(C(=O)c2ccccc2)cc1 (stereo not shown) [JM3A-BPD1] (I: H-[N(4-BzPh)Gly][Nleu][Nlys][Nlys][Nleu][Gly(N-piperonyl)][Nme]KMK-NH2 / II: H-[N(4-BzPh)Gly][Nleu][Nlys][Nlys][Nleu][Gly(N-piperonyl)][Nme]KM; amide I:10-II:C; configuration not given here)
- inhibition of cell migration [1]: moderately inhibit
- colony formation [2]: some colony disruption

Compound: COCCN(CC(=O)NC(CCCCN)C(=O)NC(CCSC)C(N)=O)C(=O)CN(C)C(=O)CN(CC(C)C)C(=O)CN(CCCCN)C(=O)CN(CCCCN)C(=O)CN(C)C(=O)CNc1ccc(C(=O)c2ccccc2)cc1 (stereo not shown) [JM3A-4,8-BP] (H-[N(4-BzPh)Gly][Sar][Nlys][Nlys][Nleu][Sar][Nme]KM-NH2; configuration not given here)
- binding to vimentin (in words) ([10]; comparison of derivatives): highest binding affinity

Compound: COCCN(CC(=O)N[C@@H](CCCCN)C(=O)N[C@H](C)C(=O)NCC(=O)NCCCC[C@H](NC(=O)CNC(=O)[C@@H](C)NC(=O)[C@H](CCCCN)NC(=O)CN(CCOC)C(=O)CN(Cc1ccc2c(c1)OCO2)C(=O)CN(CC(C)C)C(=O)CN(CCCCN)C(=O)CN(CCCCN)C(=O)CN(CC(C)C)C(=O)CNc1cccc(C(=O)c2ccccc2)c1)C(N)=O)C(=O)CN(Cc1ccc2c(c1)OCO2)C(=O)CN(CC(C)C)C(=O)CN(CCCCN)C(=O)CN(CCCCN)C(=O)CN(CC(C)C)C(=O)CNc1ccc(C(=O)c2ccccc2)cc1 [L2 (D-ala)] (I: H-[X1][Nleu][Nlys][Nlys][Nleu][Gly(N-piperonyl)][Nme]K[dA]GK-NH2 / II: H-[N(4-BzPh)Gly][Nleu][Nlys][Nlys][Nleu][Gly(N-piperonyl)][Nme]K[dA]G; amide I:11-II:C; N-terminus and C-terminus assumed)
- anti-proliferation activity (in words) [11]: best activity
- anti-proliferation activity (in words) [12]: lowest activity
- anti-proliferation activity (in words) [13]: medium activity
- anti-proliferation activity (in words) [14]: inactivity
- Kd improvement relative to JM3A-BPD1 ([10]; 10 nM to 10 μM): approximately 10 times
- anti-proliferation activity (in words) [15]: medium activity
- concentration from which cell migration is inhibited [1]: 3 µM
- inhibition of cell migration [1]: significantly inhibit
- effect of extension of treatment time on proliferation ([16]; H1299 cells, after 18 hours): no significant impact
- anti-proliferation potency (in words) ([16]; H1299 cells, treatment 6 hours): improvement in potency
- concentration from which colony formation is disrupted ([2]; 7 days of incubation): 1 µM
- colony formation [2]: inhibit all colonies

Continued, in another order:

- binding of histidine-tagged vimentin to on-bead compound [4]: showed binding
- pulldown of vimentin protein ([5]; normal cells (HBEC3-KT)): not in normal cells
- detection of vimentin overexpression ([7]; early cancer tissues): present
- detection of vimentin overexpression ([7]; normal tissues): absent
Compound: COCCN(CC(=O)NC(CCCCN)C(=O)NC(CCSC)C(N)=O)C(=O)CN(Cc1ccc2c(c1)OCO2)C(=O)CN(CC(C)C)C(=O)CN(CCCCN)C(=O)CN(CCCCN)C(=O)CNCC(C)C (stereo not shown) [JM3A] (H-[Nleu][Nlys][Nlys][Nleu][Gly(N-piperonyl)][Nme]KM-NH2; configuration not given here)
- interaction with and pulldown of vimentin protein [3]: strong interaction and pulldown of vimentin protein
- pulldown of vimentin protein ([5]; transformed cells (HBEC3^p53,KRAS,cMYC)): pulldown only with JM3A in transformed cells
- binding of beads to cells [6]: not to green stained cells
- binding of beads to cells [8]: bound only to red stained cells
- pulldown of vimentin expressing cells [9]: can be pulled down

- pIC50 [16]: ~5.22
Compound: COCCN(CC(=O)N[C@@H](CCCCN)C(=O)N[C@@H](CCSC)C(=O)NCC(=O)NCCCC[C@H](NC(=O)CNC(=O)[C@H](CCSC)NC(=O)[C@H](CCCCN)NC(=O)CN(CCOC)C(=O)CN(Cc1ccc2c(c1)OCO2)C(=O)CN(CC(C)C)C(=O)CN(CCCCN)C(=O)CN(CCCCN)C(=O)CN(CC(C)C)C(=O)CNc1ccc(C(=O)c2ccccc2)cc1)C(N)=O)C(=O)CN(Cc1ccc2c(c1)OCO2)C(=O)CN(CC(C)C)C(=O)CN(CCCCN)C(=O)CN(CCCCN)C(=O)CN(CC(C)C)C(=O)CNc1ccc(C(=O)c2ccccc2)cc1 [L2] (I: H-[N(4-BzPh)Gly][Nleu][Nlys][Nlys][Nleu][Gly(N-piperonyl)][Nme]KMGK-NH2 / II: H-[N(4-BzPh)Gly][Nleu][Nlys][Nlys][Nleu][Gly(N-piperonyl)][Nme]KMG; amide I:11-II:C)
